Experimental findings from patent US6114517A, “Methods of modulating tumor necrosis factor α-induced expression of cell adhesion molecules” (Isis Pharmaceuticals Inc., priority 1998, dated 2000) are described below.

What all share (format): cell-based, human
Data set [1] has as its system ICAM-1 mRNA. Kind of data set: TNF-α-induced ICAM-1 mRNA, Northern blot. To be noted: 48 hrs recovery, TNF-α two to three hours before RNA analysis. On the procedure: (§1) For determination of mRNA levels by Northern blot, total RNA was prepared from cells by the guanidinium isothiocyanate procedure or by the Qiagen RNAEASY method (Qiagen, Santa Clarita, Calif.) at the indicated times after initiation of oligonucleotide treatment. Northern blot analysis was performed as described in Current Protocols in Molecular Biology (Ausubel, F. M., et al., (eds), 1987, Greene Publishing Assoc. and Wiley Interscience, New York). A glyceraldehyde 3-phosphate dehydrogenase (G3PDH) probe was purchased from Clontech (Palo Alto, Calif., Catalog Number 9805-1). RNA was quantified and normalized to G3PDH mRNA levels using a Molecular Dynamic PHOSPHORIMAGER (Sunnyvale, Calif.).
(§2) Northern blot analysis was carried out to examine whether c-raf and Ha-ras antisense oligonucleotides inhibit the induction of cell adhesion molecules at the transcriptional level. Cells were treated with c-raf (ISIS 12854, SEQ ID NO. 2) or Ha-ras (ISIS 15168, SEQ ID NO. 4) antisense oligonucleotides and allowed to recover for 48 hrs. TNF-α was added two to three hours prior to RNA analysis and Northern blotting was performed with probes specific for E-selectin, ICAM-1, and VCAM-1. The probe for E-selectin was obtained by PCR amplification using primers directed to HUMELAM1A (Genbank Accession No. M24736; SEQ ID NO. 18).

Data set [2] has as its system c-raf mRNA. Kind of data set: c-raf mRNA levels by Northern blot in HMVEC. As for the experimental part:
(§3) Human dermal microvascular cells (HMVEC-d; Clonetics, San Diego, Calif.) were cultivated in endothelial basal media (EBM, Clonetics) supplemented with 10% fetal bovine serum (HyClone, Logan, Utah). Cells were grown in 100 mm petri dishes until 70-80% confluent, then washed with PBS and OPTI-MEM (Life Technologies, Inc., Gaithersburg, Md.). The cells were then incubated in the presence of OPTI-MEM and […] LIPOFECTIN (a 1:1 (w/w) liposome formulation of the cationic lipid N-[1-(2,3-dioleyloxy)propyl]-n,n,n-trimethylammonium chloride (DOTMA), and dioleoyl phosphotidylethanolamine (DOPE) in membrane filtered water (Life Technologies, Gaithersburg, Md.), per 100 nM of oligonucleotide followed by addition of oligonucleotide at the appropriate concentrations.
as §1
ISIS 12854 (SEQ ID NO. 2) is a 2'-O-methoxyethyl mixed backbone chimeric antisense oligonucleotide designed to hybridize with 3'-untranslated sequences contained within human c-raf mRNA. To determine whether this antisense oligonucleotide is effective as a c-raf inhibitor in endothelial cells, human dermal microvascular cells (HMVEC) were treated with ISIS 12854 (SEQ ID NO. 2) as described in Example 2. C-raf mRNA and protein expression was examined by northern and Western blot analysis. The c-raf cDNA probe was generated from the plasmid, p627 (American Type Culture Collection, Manassas, Va.; catalog #41050), following the supplied instructions. The c-raf antibody was obtained from Transduction Laboratories, Inc. (Lexington, Ky.).

Data set [3] has as its system VCAM-1 mRNA. The data set can be described thus: TNF-α-induced VCAM-1 mRNA, Northern blot. The following applies: 48 hrs recovery, TNF-α two to three hours before RNA analysis. On the procedure:
as §1, §2

The test system of data set [4] is E-selectin. The data set can be described thus: TNF-α-induced E-selectin cell surface expression in HMVEC, flow cytometry. As for the experimental part:
as §3
(§4) The effect of c-raf and Ha-ras antisense oligonucleotide treatment on the induction of E-selectin by TNF-α was examined. HMVEC cells were treated with either the c-raf or Ha-ras antisense compound under dose-response conditions or over time at a single dose level followed by stimulation of E-selectin expression by TNF-α for 5 hours. The cell surface expression of E-selectin was determined by flow cytometry analysis. Following oligonucleotide treatment, cells were detached from the plates and analyzed for surface expression of cell adhesion molecules using a Becton Dickinson (San Jose, Calif.) FACScan. TNF-α and FITC conjugated antibody for E-selectin were obtained from R & D Systems (Minneapolis, Minn.). PE-conjugated antibody for ICAM-1 was obtained from Pharmingen (San Diego, Calif.). VCAM-1 antibody was obtained from Santa Cruz Biotechnology, Santa Cruz, Calif. Cell surface expression was calculated using the mean value of fluorescence intensity using 3,000-5,000 cells stained with the appropriate antibody for each sample and time point. Results are expressed as percentage of control (cell surface expression induced by TNF-α in cells that were not treated with oligonucleotides) based upon mean fluorescence intensity.
The effects of c-raf, Ha-ras, and a E-selectin antisense oligonucleotide on TNF-α-induced E-selectin cell surface expression under kinetic conditions were examined. […] To test this, cells were treated, separately, with antisense oligonucleotides to E-selectin, ICAM-1 and VCAM-1 and allowed to recover prior to TNF-α treatment. […] E-selectin cell surface expression was measured by flow cytometry analysis after 5 hours of TNF-A treatment.
In general terms: A flow cytometer gives signals particle by particle.

For data set [5], the system named is ICAM-1. The data set can be described thus: TNF-α-induced ICAM-1 cell surface expression in HMVEC, flow cytometry. As for the experimental part:
as §3
as §4, with “intensity. Basal expression of E-selectin and VCAM-1 is undetectable in the absence of TNF-α whereas a low level of basal expression is detectable for ICAM-1.” for “intensity.”
(§5) TNF-α induction of ICAM-1 and VCAM-1 in cells treated with c-raf and Ha-ras antisense oligonucleotides was also examined to further define the roles of c-raf and Ha-ras in cytokine signaling. Oligonucleotides were tested, using flow cytometry analysis, as described in Example 4. Results are shown in Table 6 (ICAM-1) and Table 7 (VCAM-1).

Data set [6] deals with VCAM-1. The data set can be described thus: TNF-α-induced VCAM-1 cell surface expression in HMVEC, flow cytometry. On the procedure:
as §3
as §4, with “intensity. Basal expression of E-selectin and VCAM-1 is undetectable in the absence of TNF-α whereas a low level of basal expression is detectable for ICAM-1.” for “intensity.”
as §5

Data set [7] concerns E-selectin mRNA. The data set can be described thus: TNF-α-induced E-selectin mRNA, Northern blot. The following applies: 48 hrs recovery, TNF-α two to three hours before RNA analysis. On the procedure: as §1, §2
Data set [8] relates to JNK1 mRNA. The data set can be described thus: JNK1 mRNA expression by Northern blot. The following applies: at the concentration tested, FIG. 4. On the procedure: as §3
For determination of mRNA levels by Northern blot, total RNA was prepared from cells by the guanidinium isothiocyanate procedure or by the Qiagen RNAEASY method (Qiagen, Santa Clarita, Calif.) at the indicated times after initiation of oligonucleotide treatment. Northern blot analysis was performed as described in Current Protocols in Molecular Biology (Ausubel, F. M., et al., (eds), 1987, Greene Publishing Assoc. and Wiley Interscience, New York). […] RNA was quantified and normalized to G3PDH mRNA levels using a Molecular Dynamic PHOSPHORIMAGER (Sunnyvale, Calif.). […]

Data set [9] has as its system JNK1. Kind of data set: TNF-α-mediated JNK1 kinase activity, isoform-specific JNK assay. The following applies: FIG. 5. As for the experimental part:
To examine the effect of the c-raf antisense oligonucleotide (ISIS 12854, SEQ ID NO. 2) on ERK, JNK, and p38 MAPK activities stimulated by TNF-α, in vitro kinase assays were performed on extracts derived from cells treated with ISIS 12854 (SEQ ID NO. 2). Cells were treated with oligonucleotides and induced with cytokines. At the indicated time, cells were lysed on ice and debris was removed by centrifugation. Protein concentration was measured by Bradford assay. Lysate containing equal amounts of protein were incubated with primary antibody-agarose conjugates (ERK and p38 assay; Santa Cruz Biotechnology, Santa Cruz, Calif.), or with JNK1-specific or JNK2-specific antibodies (JNK assay; Upstate Biotechnology, Lake Placid, N.Y.), overnight at 4° C.
For isoform-specific JNK assays, anti-rabbit IgG conjugated with agarose beads was added to cell extracts following JNK antibody treatment and wash steps and incubated for 2 hours at 4° C. After washing with lysis buffer and kinase buffer, the pelleted beads were incubated with 1 μg of substrate (Elk-1 for ERK, ATF-2 for p38, and c-Jun for JNK MAPK) and 100 […] of ATP for 20 minutes at 37° C. MAPK and JNK assay kits, ATF-2 fusion protein, and antibodies for ATF-2, Elk-1 phospho-ATF-2 were purchased from New England BioLabs (Boston, Mass.). Reactions were terminated by the addition of 3×SDS sample buffer followed by boiling. […]

Setting [10] is: Table 9, JNK antisense series, 20 nM.
Setting [11] is: Table 9, JNK antisense series, 50 nM.
Where [12] appears, read: Table 9, JNK antisense series, 100 nM.
Where [13] appears, read: time course, 12 h/20 h after oligonucleotide treatment, TNF-α 5 hours.
Setting [14] is: time course, 48 h after oligonucleotide treatment, TNF-α 5 hours.
Where [15] appears, read: time course, 72 h after oligonucleotide treatment, TNF-α 5 hours.

On to “AoToGoCoAoTsTsCsTsGsCsCsCsCsCoAoAoGoGoA [ISIS 15727, reference compound]”, for which the “% mRNA Expression (ICAM-1)” value in [1] came out at 107%. In [2], the “effect on c-raf mRNA” value is listed as “did not exhibit any effect”. The “% mRNA Expression (c-raf)” value in data set [2] (100 nM) is reported as 96%; in data set [2] (200 nM), 135%. Also, in data set [2] (100 nM), the “% mRNA Inhibition (c-raf)” value came to 4%. Further, the “% mRNA Expression (VCAM-1)” value in [3] turned out to be 113%. The “% Cell Surface Expression (E-selectin)” value turned out to be 119% in [4] (25 nM, TNF-α for 5 hours, % of control); 94% in data set [4] (75 nM, TNF-α for 5 hours, % of control); 106% in data set [4] (150 nM, TNF-α for 5 hours, % of control); 137% in [4] (setting [10]); 128% in [4] (setting [11]); 124% in [4] (setting [12]). The “% Cell Surface Expression (E-selectin)” value in [4] (setting [13]) is given as 93%; in data set [4] (setting [14]) it was 106%; in data set [4] (setting [15]) it was 81%. Further, the “% Cell Surface Inhibition (E-selectin)” value stood at 6% in data set [4] (75 nM, TNF-α for 5 hours); 7% in data set [4] (setting [13]); 19% in [4] (setting [15]). In addition, the “effect on E-selectin induction” value in data set [4] (dose response, HMVEC) is recorded as “little to no effect”. Further, the “% Cell Surface Expression (ICAM-1)” value in [5] (20 nM) stood at 97%; in data set [5] (50 nM), 89%; in data set [5] (100 nM), 87%. For the same substance, the “% Cell Surface Inhibition (ICAM-1)” value worked out at 3% in data set [5] (20 nM), 11% in [5] (50 nM) and 13% in [5] (100 nM). The “% Cell Surface Expression (VCAM-1)” value was found to be 69% in data set [6] (20 nM), 81% in data set [6] (50 nM) and 74% in [6] (100 nM). The “% Cell Surface Inhibition (VCAM-1)” value came out at 31% in data set [6] (20 nM), 19% in data set [6] (50 nM) and 26% in data set [6] (100 nM). Also, the “% mRNA Expression (E-selectin)” value in [7] is on record as 103%.
As for “CoToCoToCoTsGsTsAsGsGsCsCsCsGsCoToToGoG [ISIS 15347]”, in [8], the “JNK1 mRNA expression” value was “nearly complete inhibition”. For the same substance, the “% Cell Surface Expression (E-selectin)” value amounted to 89% in data set [4] (setting [10]), 84% in [4] (setting [11]) and 82% in data set [4] (setting [12]). Also, the “% Cell Surface Inhibition (E-selectin)” value in data set [4] (setting [10]) was found to be 11%; in [4] (setting [11]), 16%; in data set [4] (setting [12]), 18%. Besides, the “TNF-α-mediated induction of JNK1 activity” value in data set [9] was “effectively reduced”.
Regarding “GsAsAsGsTsCsAsGsCsCsAsAsGsAsAsCsAsGsCsT (GAAGTCAGCCAAGAACAGCT; all phosphorothioate, sugars by position and methylation of C not given here) [ISIS 11928, fully phosphorothioated oligonucleotide with all 2'-methoxyethoxy nucleotides except a 3' terminal 2'-deoxy nucleotide, antisense to E-selectin]”, the “block of E-selectin cell surface expression” value in [4] (concentrations as low as 20 nM, 12 hours following treatment) is listed as 80%. The “% Cell Surface Expression (E-selectin)” value stood at 22% in data set [4] (setting [13]), 29% in [4] (setting [14]) and 32% in data set [4] (setting [15]). Moreover, the “% Cell Surface Inhibition (E-selectin)” value in [4] (setting [13]) worked out at 78%; in data set [4] (setting [14]) it was 71%; in [4] (setting [15]) it was 68%.
